Measured values taken from paper PMC11224109, “Synthesis and preclinical evaluation of novel ^18F-vancomycin-based tracers for the detection of bacterial infections using positron emission tomography” (European Journal of Nuclear Medicine and Molecular Imaging, 2024).
Where two headings read alike, the source gives them in different places.

What was measured:
[1] = up to 120 min, previously shown; cited from earlier work
Experimental: Tracer stability was assessed in both PBS and human plasma. […] In contrast, > 90% of the [^18F]BODIPY-FL-vancomycin remained stable in PBS and plasma for up to 120 min, as was also previously shown for [^18F]PQ-VE1-vancomycin [44].

E. coli [2] = conditions: previously reported; cited from earlier work
Experimental: (§1) In vitro binding of [^18F]BODIPY-FL-vancomycin and [^18F]FB-vancomycin to the Gram-positive bacterium S. aureus and the Gram-negative bacterium E. coli was assayed by incubating the bacteria with either one of the two tracers and collecting samples at fixed time intervals to determine the radioactivity associated with the bacteria.

S. aureus [3] = conditions: previously reported; cited from earlier work
Experimental: as §1

[4] = test system: S. aureus USA300 MRSA strain; experiment: Competition with unlabeled vancomycin; type: binding, Staphylococcus aureus; conditions: for Tracer binding to S. aureus at a concentration of 1024 µg/mL vancomycin / Tracer binding to S. aureus at vancomycin concentrations below 2 µg/mL / Tracer binding to S. aureus at vancomycin concentrations of up to 64 µg/mL: S. aureus USA300, OD600 0.2, 125 kBq tracer per mL, 30 min incubation, gamma counter
Experimental: [^18F]FB-vancomycin was excluded due to its limited in vitro and in vivo stability. On the day of the experiment, a fresh culture was started in 10 mL of TSB and grown to an OD600 of 2.0. […] Bacteria were added to the dilutions to obtain a final OD600 of 0.2 and the vial was briefly vortexed to ensure proper mixing. Tracer was added (125 kBq per mL, 40.3 pg and 0.5 pg of [^18F]BODIPY-FL-vancomycin and [^18F]PQ-VE1-vancomycin, respectively) and the vial was vortexed again. After 30 min incubation, aliquots were collected in 2 mL Eppendorf tubes and washed twice with PBS by centrifugation. […] Measurements were corrected for background and decay. Results are reported as 10^3 counts per s (kBq).

S. aureus [5] = experiment: In vitro tracer binding to S. aureus; parameters: species or system Staphylococcus aureus; conditions: clinical isolate, culture OD600 about 3.0, 37 °C, sampled at 0, 15 and 30 min, washed twice, gamma counter
Experimental: (§2) Single colonies of clinical S. aureus and E. coli isolates were used to inoculate TSB and incubated overnight. From the overnight cultures, fresh cultures were started and grown to an optical density at 600 nm (OD600) of approximately 3.0. Both strains were incubated with tracer (3.5 MBq in 1 mL 0.9% saline) in a water bath at 37 °C. The final tracer concentration was 120 kBq ± 28 (38.6 pg ± 9.1 and 0.5 pg ± 0.1 of [^18F]BODIPY-FL-vancomycin and [^18F]PQ-VE1-vancomycin, respectively) per mL culture. At fixed time intervals (0, 15 and 30 min), aliquots were collected (2.0 mL in a 2 mL Eppendorf tube) and washed twice with sterile PBS (1.0 mL per washing step). In each washing step, the bacteria were pelleted by centrifugation (10.000 rpm, 60 s) and resuspended in fresh PBS. […] Measurements were corrected for background and decay. Results are reported as counts per s (Bq). To correlate bound tracer with the number of bacteria in a sample, the bacterial suspensions (2 ×) were plated and CFUs were counted.

E. coli [6] = experiment: In vitro tracer binding to E. coli; parameters: species or system Escherichia coli; conditions: clinical isolate, culture OD600 about 3.0, 37 °C, sampled at 0, 15 and 30 min, washed twice, gamma counter
Experimental: as §2

[7] = test system: S. epidermidis ATCC 35,984; conditions: ATCC 35, 17 h
Experimental: From a single colony an overnight culture was inoculated in Mueller Hinton Broth (MHB) and incubated overnight. On the day of the experiment, a fresh culture was started in 10 mL of MHB until exponential phase was reached. From this, the culture was diluted to an OD600 of 0.01 for the MIC experiment. […] Growth was recorded using a BioTeK Synergy2 microplate spectrophotometer (Agilent, Santa Clara, United States).

Row | SMILES | Tracer remaining stable in PBS [1] | Tracer remaining stable in human plasma [1] | Binding to E. coli (E. coli [2]) | Binding to S. aureus (S. aureus [3]) | Tracer binding to S. aureus at a concentration of 1024 µg/mL vancomycin [4] | Tracer binding to S. aureus at vancomycin concentrations below 2 µg/mL [4] | Tracer binding to S. aureus at vancomycin concentrations of up to 64 µg/mL [4] | Binding to S. aureus (S. aureus [5]) | Binding to E. coli (E. coli [6]) | MIC [7] [µg/mL] | Vancomycin concentrations at which tracer binding is outcompeted, compared with [^18F]PQ-VE1-vancomycin ([4]; S. aureus USA300, 30 min incubation)
1 | CN[C@H](CC(C)C)C(=O)N[C@H]1C(=O)N[C@@H](CC(N)=O)C(=O)N[C@H]2C(=O)N[C@H]3C(=O)N[C@H](C(=O)N[C@H](C(=O)O)c4cc(O)cc(O)c4-c4cc3ccc4O)[C@H](O)c3ccc(c(Cl)c3)Oc3cc2cc(c3O[C@@H]2O[C@H](CO)[C@@H](O)[C@H](O)[C@H]2O[C@H]2C[C@](C)(NC(=O)c3ccc4c5c(c6ccccc6c4c3)OCC(OCCF)O5)[C@H](O)[C@H](C)O2)Oc2ccc(cc2Cl)[C@H]1O (stereo partly shown) [[^18F]PQ-VE1-vancomycin] | over 90% | over 90% | not to E. coli | rapid and selective binding to S. aureus | reduced to baseline | not significantly inhibited | signal over background was still detected |  |  |  | 
2 | CC(C)C[C@H](C(=O)N[C@H]1C(=O)N[C@@H](CC(N)=O)C(=O)N[C@H]2C(=O)N[C@H]3C(=O)N[C@H](C(=O)N[C@H](C(=O)O)c4cc(O)cc(O)c4-c4cc3ccc4O)[C@H](O)c3ccc(c(Cl)c3)Oc3cc2cc(c3O[C@@H]2O[C@H](CO)[C@@H](O)[C@H](O)[C@H]2O[C@H]2C[C@](C)(N)[C@H](O)[C@H](C)O2)Oc2ccc(cc2Cl)[C@H]1O)N(C)C(=O)c1ccc(F)cc1 [[^18F]FB-vancomycin] |  |  |  |  |  |  |  | no bacterial binding was observed | no bacterial binding was observed |  | 
3 | Cc1cc(C)n2c1C=C1C=CC(CCC(=O)N(C)[C@H](CC(C)C)C(=O)N[C@H]3C(=O)N[C@@H](CC(N)=O)C(=O)N[C@H]4C(=O)N[C@H]5C(=O)N[C@H](C(=O)N[C@H](C(=O)O)c6cc(O)cc(O)c6-c6cc5ccc6O)[C@H](O)c5ccc(c(Cl)c5)Oc5cc4cc(c5O[C@@H]4O[C@H](CO)[C@@H](O)[C@H](O)[C@H]4O[C@H]4C[C@](C)(N)[C@H](O)[C@H](C)O4)Oc4ccc(cc4Cl)[C@H]3O)=[N+]1[B-]2(F)F [[^18F]BODIPY-FL-vancomycin] |  |  |  |  | reduced to baseline | not significantly inhibited | signal over background was still detected | rapid and selective binding to S. aureus | not to E. coli | 16 | slightly lower
